One assay relates to Ishikawa cells. The assay can be described thus: Ishikawa Cell Alkaline Phosphatase Assay. It is filed as cell-based, human. The conditions noted are these: for % Activation: percent of response related to 1 nM 17β-estradiol, 48 h. As to the method: Cells were treated for 48 h prior to assay. […] Sample population for at each dose was n=8. […] Plates are placed at -80°C for a minimum of 15 minutes. Plates are thawed at 37°C followed by the addition of 150μL of 0.1 M Tris-HCl, pH 9.8, containing 4 mM para-nitrophenylphosphate (pNPP) to each well (final concentration. 3 mM pNPP). Absorbance and slope calculations were made using the […] Application program (Bio-Tek Instruments, Inc., Winooski, VT). […] Various compounds were assayed for estrogenic activity by the alkaline phosphatase method and corresponding ED50 values (95% C.I.) were calculated. The four listed in the following were used as as reference standards: A description of these methods is described by Holinka, […]., Kuramoto, H. and Gurpide, E. (1986) Effects of steroid hormones and antisteroids on alkaline phosphatase activity in human endometrial cancer cells (Ishikawa Line). Cancer Research, 46:2771-2774, and by […]. and […] simple and sensitive microtiter plate estrogen bioassay based on stimulation alkaline phosphatase in Ishikawa cells; […] Endocrinology, 6:2757-2762.

A further assay has as its system Ovariectomized Rat. The assay is described as follows: 6-Week Ovariectomized Rat Model. It counts as in vivo. The conditions noted are these: ovx rats, daily x7 days/week, mean; for Body Weight / Cholesterol / Uterine Weight: following 6 weeks of treatment; for BMD L4 / BMD Proximal Tibia: following 5 weeks of treatment. The source says: Female Sprague Dawley CD rats, ovx or sham ovx, were obtained 1 day after surgery from Taconic Farm (weight range 240 - 275 g). They were housed 3 or 4 rats/cage in a room on a 14/10 (light/dark) schedule and provided with food (Purina 500 rat chow) and water ad libitum. Treatment for all studies began 1 day after the animals arrival and dosed 5 or 7 days per week as indicated for 6 weeks. A group of age matched sham operated rats not receiving any treatment served as an intact, estrogen replete control group for each study. All treatments were prepared in 1% tween 80 in normal saline at defined concentrations so that the treatment volume was 0.1mL/100g body weight. 17-beta estradiol was dissolved in corn oil (20 uG/mL) and delivered subcutaneously, 0.1 mL/rat. All dosages were adjusted at three week intervals according to group mean body weight measurements.
Five weeks after the initiation of treatment and one week prior to the termination of the study, each rat was evaluated for bone mineral density (BMD). The BMD's of the proximal tibiae (PT) and fourth lumbar vertabrae (L4) were measured in anesthetized rats using a dual energy X-ray absorptiometer (Eclipse XR-26, Norland Corp. Ft. Atkins, WI). The dual energy X-ray absorptiometer (DXA) measurements for each rat were performed as follows: Fifteen minutes prior to DXA measurements, the rat was anesthetized with an intraperitoneal injection of 100 mg/kg ketamine (Bristol Laboratories, Syracuse, NY) and 0.75 mg/kg acepromazine (Aveco, Ft.Dodge, IA). The rat was placed on an acrylic table under the DXA scanner perpendicular to its path; the limbs were extended and secured with paper tape to the surface of the table. A preliminary scan was performed at a scan speed of 50 mm/second with a scan resolution of 1.5 mm X 1.5 mm to determine the region of interest in PT and L4. Small subject software was employed at a scan speed of 10mm/second with resolution of 0.5 mm X 0.5 mm for final BMD measurements. The software allows the operator to define a 1.5 cm wide area to cover the total length of L4. The BMDs for respective sites were computed by the software as a function of the attenuation of the dual beam (46.8 KeV and 80 KeV) X-ray generated by the source underneath the subject and the detector travelling along the defined area above the subject. The data for BMD values (expressed in g/cm2) and individual scans were stored for statistical analysis. One week after BMD evaluation the rats were sacrificed by carbon dioxide suffocation and blood collected for cholesterol determination. The uteri were removed and the weights taken. Total cholesterol is determined using a Boehringer-Mannheim Hitachi 911 clinical analyzer using the Cholesterol/HP kit. Statitstics were compared using one-way analysis of variance with Dunnet's test.

Where [1] appears, read: with 1 nM 17β-estradiol (antiestrogen test).

Marks after values point to notes of the source that are not given here.

In the case of `C[C@]12CC[C@@H]3c4ccc(O)cc4CC[C@H]3[C@@H]1CC[C@@H]2O` [17β-estradiol], the EC50 with Ishikawa cells (Homo sapiens, Ishikawa, estrogenic activity by the alkaline phosphatase method, reference standards, read-out: ED50 values (95% C.I.)) stood at […]. For the same molecule, the “% Activation” value in the assay on Ishikawa cells (compound alone) stood at […]. Also, the “Body Weight” value in the assay with Ovariectomized Rat (2µg/rat, s.c.) is given as 33.1** g.
On to `Cc1c(-c2ccc(O)cc2)n(Cc2ccc(OCCN3CCCCCC3)cc2)c2ccc(O)cc12` [Example No. 98, 1-[4-(2-Azepan-1-yl-ethoxy)-benzyl]-2-(4-hydroxy-phenyl)-3-methyl-1H-indol-5-ol], for which, in the assay with Ishikawa cells (compound alone), the “% Activation” value is recorded as 1% activity (1% with 1 nM 17β-estradiol). Moreover, the “% Activation” value in the assay with Ishikawa cells (setting [1]) is reported as 1% activity (1% with 1 nM 17β-estradiol). Besides, in the assay with Ovariectomized Rat (0.3mg/kg, p.o.), the “BMD L4” value worked out at 0.173 mg/cm^2, the “BMD Proximal Tibia” value was 0.210** mg/cm^2, the “Body Weight” value was found to be 46.8 g and the Cholesterol is recorded as 59.0** mg/dl. Further, in the assay with Ovariectomized Rat (0.3mg/kg, p.o.), the “Uterine Weight” value came out at 149.3 mg.
With `O=C(c1ccc(OCCN2CCCCC2)cc1)c1c(-c2ccc(O)cc2)sc2cc(O)ccc12` [raloxifene], the “% Activation” value in the assay on Ishikawa cells (compound alone) is on record as 5% activity (5% with 1 nM 17β-estradiol). The “% Activation” value in the assay on Ishikawa cells (setting [1]) is recorded as 5% activity (5% with 1 nM 17β-estradiol). For the same molecule, in the assay on Ovariectomized Rat (3mg/kg, p.o.), the “BMD L4” value was determined as 0.170 mg/cm^2, the “BMD Proximal Tibia” value was 0.207** mg/cm^2, the “Body Weight” value is given as 25.3** g and the Cholesterol was 55.0** mg/dl. Besides, the “Uterine Weight” value in the assay on Ovariectomized Rat (3mg/kg, p.o.) is on record as 191.6** mg.
